Values quoted from earlier work, collected in patent US20210113664A1, “IMPLANTS FOR RELEASE OF LIPOPHILIC OR AMPHIPHILIC PHARMACEUTICAL SUBSTANCES” (Titan Pharmaceuticals, Inc., priority 2018, published 2021).

Details: values as reported by PubChem

Row | SMILES | log Poct
1 | CC#CCC(C)[C@H](O)/C=C/[C@@H]1[C@H]2C/C(=C/CCCC(=O)O)C[C@H]2C[C@H]1O (some centres unmarked) [iloprost] | about 4.8
2 | N[C@@H](Cc1cc(I)c(Oc2cc(I)c(O)c(I)c2)c(I)c1)C(=O)O [levothyroxine] | about 4
